# Laboratory results published in patent US12180226B2, “Spirotricycle RIPK1 inhibitors and methods of uses thereof” (Merck Sharp & Dohme LLC, priority 2021, dated 2024).
# Structures can show the parent of a compound that is named as a salt.
# Molecular target: RIPK1 (recombinant GST-RIPK1 kinase domain, residues 1-327) (Homo sapiens (Human), UniProt Q13546)
# Assay: RIPK1-ADP-Glo Enzymatic Assay
# Format: biochemical
# Conditions: ADP-Glo; 25 nM GST-RIPK1, 300 μM ATP; assay lower limit ~25 nM; read-out: RIPK1 V0 Ec50
# How it was run: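 ADP-Glo luminescence read after 150 min kinase reaction (300 μM ATP, 3 μM dephosphorylated MBP) using 25 nM Sf21-made GST-kinase domain (1-327), preincubated 30 min with compound. HEPES pH 7.3, 1% DMSO; ten-point 1:3 series from 100000 nM, EC50 via four-parameter sigmoidal regression.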
# Chain of RIPK1 (recombinant GST-RIPK1 kinase domain, residues 1-327) (Q13546 1-327): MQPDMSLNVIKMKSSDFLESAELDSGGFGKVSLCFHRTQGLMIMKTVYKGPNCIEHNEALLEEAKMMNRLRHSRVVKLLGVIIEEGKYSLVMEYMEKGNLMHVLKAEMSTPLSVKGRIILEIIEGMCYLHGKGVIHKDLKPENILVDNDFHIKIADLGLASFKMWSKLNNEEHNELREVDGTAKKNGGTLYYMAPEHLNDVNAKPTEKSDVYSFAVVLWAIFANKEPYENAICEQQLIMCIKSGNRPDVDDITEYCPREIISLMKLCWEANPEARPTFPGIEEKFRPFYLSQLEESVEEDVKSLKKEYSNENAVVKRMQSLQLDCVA
row,EC50 [nM],SMILES
1,97.7,"O=C1N2[C@@H](CC[C@H]2c2ccccc2)OC12CCN(c1nccc(C3CC3)n1)CC2 [Example 11.12, (5′S,7a′R)-1-(4-cyclopropylpyrimidin-2-yl)-5′-phenyltetrahydro-3′H-spiro[piperidine-4,2′-pyrrolo[2,1-b][1,3]oxazol]-3′-one]"
2,165,"N#CC1(NC(=O)c2nc(N3CCC4(CC3)O[C@@H]3CC[C@@H](c5cc(F)cc(F)c5)N3C4=O)ncc2F)CC1 [Example 7.12, N-(1-cyanocyclopropyl)-2-[(5′S,7a′R)-5′-(3,5-difluorophenyl)-3'-oxotetrahydro-1H,3′H-spiro[piperidine-4,2′-pyrrolo[2,1-b][1,3]oxazol]-1-yl]-5-fluoropyrimidine-4-carboxamide]"
3,< 25,"O=C(c1nc(N2CCC3(CC2)O[C@@H]2CC[C@@H](c4cc(F)cc(F)c4)N2C3=O)ncc1F)N1CC(C(F)F)C1 [Example 7.8, (5′S,7a′R)-1-{4-[3-(difluoromethyl)azetidine-1-carbonyl]-5-fluoropyrimidin-2-yl}-5′-(3,5-difluorophenyl)tetrahydro-3′H-spiro[piperidine-4,2′-pyrrolo[2,1-b][1,3]oxazol]-3′-one]"
4,< 25,"COc1cccc(C(=O)N2CCC3(CC2)O[C@@H]2CC[C@@H](c4ccccc4)N2C3=O)c1 [Example 6.155, (5′S,7a′R)-1-(3-methoxybenzene-1-carbonyl)-5′-phenyl-tetrahydro-3′H-spiro [piperidine-4,2′-pyrrolo[2,1-b][1,3]oxazol]-3′-one]"
5,25,"CCOc1cnc(N2CCC3(CC2)O[C@@H]2CC[C@@H](c4ccccc4)N2C3=O)n2ncnc12 [Example 19.7, (5′S,7a′R)-1-(8-ethoxy[1,2,4]triazolo [1,5-c]pyrimidin-5-yl)-5′-phenyltetrahydro-3′H-spiro[piperidine-4,2′-pyrrolo[2,1-b][l,3]oxazol]-3′-one]"
6,33.7,"O=C1N2[C@H](OC13CCN(c1ccnc4ccnn14)CC3)[C@H](O)C[C@H]2c1ccccc1 [Example 4.248, (5′S,7′R,7a′R)-7′-hydroxy-5′-phenyl-1-(pyrazolo[1,5-a]pyrimidin-7-yl)tetrahydro-3′H-spiro[piperidine-4,2′-pyrrolo[2,1-b] [1,3]oxazol]-3′-one]"
7,< 25,"O=C(c1ccoc1)N1CCC2(CC1)O[C@@H]1CC[C@@H](c3cccc(F)c3)N1C2=O [Example 6.125, (5′S,7a′R)-5′-(3-fluoro-phenyl)-1-(furan-3-carbonyl)tetrahydro-3′H-spiro[piperidine-4,2′-pyrrolo[2,1-b] [1,3]oxazol]-3′-one]"
8,< 25,"C#Cc1ccnc(C(=O)N2CCC3(CC2)O[C@@H]2CC[C@@H](c4cc(F)cc(F)c4)N2C3=O)c1 [Example 5.43, (5′S,7a′R)-5′-(3,5-difluoro-phenyl)-1-(4-ethynylpico-linoyl)tetrahydro-3′H-spiro[piperidine-4,2′-pyrrolo[2,1-b]oxazol]-3′-one]"
9,< 25,"N#Cc1cnc(N2CCC3(CC2)O[C@@H]2CC[C@@H](c4ccccc4)N2C3=O)cc1OC(F)F [Example 4.206, 4-(difluoromethoxy)-6-[(5′S,7a′R)-3′-oxo-5′-phenyltetrahydro-1H,3′H-spiro[piperidine-4,2′-pyrrolo[2,1-b] [1,3]oxazol]-1-yl]pyridine-3-carbonitrile]"
10,< 25,"N#Cc1ccnc(N2CCC3(CC2)O[C@@H]2CC[C@@H](c4cc(F)cc(F)c4)N2C3=O)c1 [Example 4.8, 2-[(5′S,7a′R)-5′-(3,5-difluorophenyl)-3′-oxotetrahydro-1H,3′H-spiro[piperidine-4,2′-pyrrolo[2,1-b] [1,3]oxazol]-1-yl]pyridine-4-carbonitrile]"
11,< 25,"O=C1N2[C@H](OC13CCN(c1ccnc4c(F)cnn14)CC3)[C@@H](F)C[C@H]2c1ccccc1 [Example 9.1, (5′S,7′S,7a′R)-7′-Fluoro-1-(3-fluoropyrazolo[1,5-a]pyrimidin-7-yl)-5′-phenyltetrahydro-3′H-spiro[piperidine-4,2′-pyrrolo[2,1-b]oxazol]-3′-one]"
12,48.8,"O=C1N2[C@@H](CC[C@H]2c2ccccc2)OC12CN(c1cccc3ncnn13)C2 [Example 4.133, (5′S,7a′R)-5′-phenyl-1-([1,2,4]triazolo[1,5-a]pyridin-5-yl)tetrahydro-3′H-spiro[azetidine-3,2′-pyrrolo[2,1-b] [1,3]oxazol]-3′-one]"
13,< 25,"O=C(c1ccccc1)N1CCC2(CC1)O[C@@H]1CC[C@@H](c3cc(F)ccc3F)N1C2=O [Example 7.2, (5′S,7a′R)-1-(benzenecarbonyl)-5′-(2,5-difluorophenyl)tetrahydro-3′H-spiro[piperidine-4,2′-pyrrolo[2,1-b][1,3]oxazol]-3′-one]"
14,67.1,"O=C(c1nc2cnccc2s1)N1CCC2(CC1)O[C@@H]1CC[C@@H](c3cc(F)cc(F)c3)N1C2=O [Example 6.44, (5′S,7a′R)-5′-(3,5-difluorophenyl)-1-([1,3]thiazolo[4,5-c]pyridine-2-carbonyl) tetrahydro-3′H-spiro [piperidine-4,2′-pyrrolo[2,1-b][1,3]oxazol]-3′-one]"
15,48.8,"Cc1cnn(-c2cc(N3CCC4(CC3)O[C@@H]3CC[C@@H](c5ccccc5)N3C4=O)ncn2)c1 [Example 4.176, (5′S,7a′R)-1-[6-(4-methyl-1H-pyrazol-1-yl)pyrimidin-4-yl]-5′-phenyltetrahydro-3′H-spiro[piperidine-4,2′-pyrrolo[2,1-b] [1,3]oxazol]-3′-one]"
16,< 25,"N#Cc1cnc(N2CCC3(CC2)S[C@@H]2CC[C@@H](c4ccccc4)N2C3=O)n2ncnc12 [Example 4.146, 5-[(5′S,7a′R)-3′-oxo-5′-phenyltetrahydro-1H,3′H-spiro[piperidine-4,2′-pyrrolo[2,1-b] [1,3]thiazol]-1-yl] [1,2,4]triazolo[1,5-c] pyrimidine-8-carbonitrile]"
17,30.6,"Cc1ncc([C@@H]2CC[C@H]3OC4(CCN(c5ccnc6c(F)cnn56)CC4F)C(=O)N32)cc1F (stereo partly drawn) [Example 4.131, (5′S,7a′R)-3-fluoro-5′-(5-fluoro-6-methylpyridin-3-yl)-1-(3-fluoropyrazolo[1,5-a]pyrimidin-7-yl)tetrahydro-3′H-spiro[piperidine-4,2′-pyrrolo[2,1-b] [1,3]oxazol]-3′-one]"
18,< 25,"CC(C)Oc1cc(N2CCC3(CC2)O[C@@H]2CC[C@@H](c4cc(F)cc(F)c4)N2C3=O)ncc1C#N [Example 4.41, 6-[(5′S,7a′R)-5′-(3,5-difluorophenyl)-3′-oxotetrahydro-1H,3′H-spiro[piperidine-4,2′-pyrrolo[2,1-b] [1,3]oxazol]-1-yl]-4-[(propan-2-yl)oxy]pyridine-3-carbonitrile]"
19,931,"O=C1N2[C@@H](CC[C@H]2c2ccccc2F)OC12CN(c1ncco1)C2 [Example 4.272, (5′S,7a′R)-5′-(2-fluorophenyl)-1-(1,3-oxazol-2-yl)tetrahydro-3′H-spiro[azetidine-3,2′-pyrrolo[2,1-b] [1,3]oxazol]-3′-one]"
20,394,"COc1ccc(N2CCC3(CC2)O[C@@H]2CC[C@@H](c4ccccc4)N2C3=O)n2ncnc12 [Example 19.8, (5′S,7a′R)-1-(8-methoxy[1,2,4]triazolo [1,5-a]pyridin-5-yl)-5′-phenyltetrahydro-3′H-spiro[piperidine-4,2′-pyrrolo[2,1-b][1,3]oxazol]-3′-one]"
21,38,"CC1CC2(CCN1C(=O)c1ncccc1F)O[C@@H]1CC[C@@H](c3cccc(F)c3)N1C2=O (stereo partly drawn) [Example 6.162, (4R,5′S,7a′R)-5′-(3-fluorophenyl)-1-(3-fluoropyridine-2-carbonyl)-2-methyl-tetrahydro-3′H-spiro [piperidine-4,2′-pyrrolo[2,1-b][1,3]oxazol]-3′-one]"
22,41.2,"COc1cc(N2CCC3(CC2)O[C@@H]2CC[C@@H](c4cccc(F)c4)N2C3=O)ncn1 [Example 4.51, (5′S,7a′R)-5′-(3-fluorophenyl)-1-(6-methoxypyrimidin-4-yl)tetrahydro-3′H-spiro[piperidine-4,2′-pyrrolo[2,1-b] [1,3]oxazol]-3′-one]"
23,664,"O=C1N2[C@@H](CC[C@H]2c2cc(F)cc(F)c2)OC12CCN(c1cncc3nccn13)CC2 [Example 13.8, (5′S,7a′R)-5′-(3,5-difluorophenyl)-1-(imidazo[1,2-a]pyrazin-5-yl)tetrahydro-3′H-spiro[piperidine-4,2′-pyrrolo[2,1-b]oxazol]-3′-one, TFA salt]"
24,253,"Cc1cc(N2CCC3(CC2)O[C@@H]2CC[C@@H](c4ccccc4)N2C3=O)cs1 [Example 11.10, (5′S,7a′R)-1-(5-methylthiophen-3-yl)-5′-phenyltetrahydro-3′H-spiro[piperidine-4,2′-pyrrolo[2,1-b][1,3]oxazol]-3′-one]"
25,36.1,"CC(C)Oc1cccc(C(=O)N2CCC3(CC2)O[C@@H]2CC[C@@H](c4cc(F)cc(F)c4)N2C3=O)n1 [Example 6.90, (5′S,7a′R)-5′-(3,5-difluorophenyl)-1-{6-[(propan-2-yl)oxy]-pyridine-2-carbonyl} tetrahydro-3′H-spiro [piperidine-4,2′-pyrrolo[2,1-b][1,3]-oxazol]-3′-one]"
26,36.5,"O=C(c1c(Cl)nc2ccccn12)N1CCC2(CC1)O[C@@H]1CC[C@@H](c3cc(F)cc(F)c3)N1C2=O [Example 6.31, (5′S,7a′R)-1-(2-chloroimidazo[1,2-a]pyridine-3-carbonyl)-5′-(3,5-difluorophen-yl)tetrahydro-3′H-spiro[piperidine-4,2′-pyrrolo[2,1-b][1,3]oxazol]-3′-one]"
27,566,"Cc1nnc(N2CC3(C2)O[C@@H]2CC[C@@H](c4ccccc4F)N2C3=O)o1 [Example 4.273, (5′S,7a′R)-5′-(2-fluorophenyl)-1-(5-methyl-1,3,4-oxadiazol-2-yl)tetrahydro-3′H-spiro[azetidine-3,2′-pyrrolo[2,1-b] [1,3]oxazol]-3′-one]"
